Measured values taken from ChEMBL document CHEMBL1687837, “Roles of residues Cys69, Asn104, Phe160, Gly232, Ser237, and Asp240 in extended-spectrum beta-lactamase Toho-1” (2011).
In brackets after ≈: the same amount, converted by molar mass.

B1: Beta-lactamase Toho-1 (Escherichia coli), Q47066 (protein)
chain: MMTQSIRRSMLTVMATLPLLFSSATLHAQANSVQQQLEALEKSSGGRLGVALINTADNSQILYRADERFAMCSTSKVMAAAAVLKQSESDKHLLNQRVEIKKSDLVNYNPIAEKHVNGTMTLAELGAAALQYSDNTAMNKLIAHLGGPDKVTAFARSLGDETFRLDRTEPTLNTAIPGDPRDTTTPLAMAQTLKNLTLGKALAETQRAQLVTWLKGNTTGSASIRAGLPKSWVVGDKTGSGDYGTTNDIAVIWPENHAPLVLVTYFTQPEQKAERRRDILAAAAKIVTHGF

Tests used:
Escherichia coli [1] = assay: Antibacterial activity against Escherichia coli AS226 carrying pBSDD240A mutant after 18 hrs by broth microdilution method; assay type: functional; details: AS226, 18 h
Escherichia coli [2] = assay: Antibacterial activity against Escherichia coli AS226 carrying pBSDC69A mutant after 18 hrs by broth microdilution method; assay type: functional; details: AS226, 18 h
Escherichia coli [3] = assay: Antibacterial activity against Escherichia coli AS226 carrying pBSDN104D mutant after 18 hrs by broth microdilution method; assay type: functional; details: AS226, 18 h
Escherichia coli [4] = assay: Antibacterial activity against Escherichia coli AS226 carrying pBSDF160T mutant after 18 hrs by broth microdilution method; assay type: functional; details: AS226, 18 h
Escherichia coli [5] = assay: Antibacterial activity against Escherichia coli AS226 carrying pBSD6 mutant after 18 hrs by broth microdilution method; assay type: functional; details: AS226, 18 h
Escherichia coli [6] = assay: Antibacterial activity against Escherichia coli AS226 after 18 hrs by broth microdilution method; assay type: functional; details: AS226, 18 h
Escherichia coli [7] = assay: Antibacterial activity against Escherichia coli AS226 carrying pBSD-H2 after 18 hrs by broth microdilution method; assay type: functional; details: AS226, 18 h
Escherichia coli [8] = assay: Antibacterial activity against Escherichia coli AS226 carrying pBSDN104A mutant after 18 hrs by broth microdilution method; assay type: functional; details: AS226, 18 h
Escherichia coli [9] = assay: Antibacterial activity against Escherichia coli AS226 carrying pBSDS237A mutant after 18 hrs by broth microdilution method; assay type: functional; details: AS226, 18 h
Escherichia coli [10] = assay: Antibacterial activity against Escherichia coli AS226 carrying pBSDD240S mutant after 18 hrs by broth microdilution method; assay type: functional; details: AS226, 18 h
Escherichia coli [11] = assay: Activity of Escherichia coli beta-lactamase Toho-1 D240A mutant assessed as compound hydrolysis by spectrophotometry
Escherichia coli [12] = assay: Activity of Escherichia coli beta-lactamase Toho-1 N104D mutant assessed as compound hydrolysis by spectrophotometry
Escherichia coli [13] = assay: Activity of Escherichia coli beta-lactamase Toho-1 […] mutant assessed as compound hydrolysis by spectrophotometry
Escherichia coli [14] = assay: Ratio of Kcat to Km for Escherichia coli beta-lactamase Toho-1 N104A mutant assessed as compound hydrolysis by spectrophotometry
Escherichia coli [15] = assay: Ratio of Kcat to Km for Escherichia coli beta-lactamase Toho-1 C69A mutant assessed as compound hydrolysis by spectrophotometry
Escherichia coli [16] = assay: Ratio of Kcat to Km for Escherichia coli beta-lactamase Toho-1 D240A mutant assessed as compound hydrolysis by spectrophotometry
Escherichia coli [17] = assay: Ratio of Kcat to Km for Escherichia coli beta-lactamase Toho-1 D240S mutant assessed as compound hydrolysis by spectrophotometry
Escherichia coli [18] = assay: Activity of Escherichia coli beta-lactamase Toho-1 N104A mutant assessed as compound hydrolysis by spectrophotometry
Escherichia coli [19] = assay: Activity of Escherichia coli beta-lactamase Toho-1 F160T mutant assessed as compound hydrolysis by spectrophotometry
Escherichia coli [20] = assay: Activity of Escherichia coli beta-lactamase Toho-1 G232A mutant assessed as compound hydrolysis by spectrophotometry
Escherichia coli [21] = assay: Ratio of Kcat to Km for Escherichia coli beta-lactamase Toho-1 […] mutant assessed as compound hydrolysis by spectrophotometry
Escherichia coli [22] = assay: Activity of Escherichia coli beta-lactamase Toho-1 D240S mutant assessed as compound hydrolysis by spectrophotometry
Escherichia coli [23] = assay: Ratio of Kcat to Km for Escherichia coli beta-lactamase Toho-1 G232A mutant assessed as compound hydrolysis by spectrophotometry
Escherichia coli [24] = assay: Ratio of Kcat to Km for Escherichia coli beta-lactamase Toho-1 F160T mutant assessed as compound hydrolysis by spectrophotometry
Escherichia coli [25] = assay: Activity of Escherichia coli beta-lactamase Toho-1 C69A mutant assessed as compound hydrolysis by spectrophotometry
Escherichia coli [26] = assay: Ratio of Kcat to Km for Escherichia coli beta-lactamase Toho-1 N104D mutant assessed as compound hydrolysis by spectrophotometry
[27] = substrate: CO/N=C(\C(=O)N[C@@H]1C(=O)N2C(C(=O)O)=C(COC(C)=O)CS[C@H]12)c1csc(N)n1; assay: (§1) Activity of Escherichia coli wild type beta-lactamase Toho-1 assessed as compound hydrolysis by spectrophotometry
[28] = substrate: CC(=O)OCC1=C(C(=O)O)N2C(=O)[C@@H](NC(=O)Cc3cccs3)[C@H]2SC1; assay: as §1
[29] = substrate: CC1(C)S[C@@H]2[C@H](NC(=O)[C@H](N)c3ccccc3)C(=O)N2[C@H]1C(=O)O; assay: as §1
[30] = substrate: CO/N=C(\C(=O)N[C@@H]1C(=O)N2C(C(=O)O)=C(CSc3cnns3)CS[C@H]12)c1csc(N)n1; assay: as §1
[31] = substrate: O=C(Cc1cccs1)N[C@@H]1C(=O)N2C(C(=O)[O-])=C(C[n+]3ccccc3)CS[C@H]12; assay: as §1
[32] = substrate: C[C@H]1[C@H](NC(=O)/C(=N\OC(C)(C)C(=O)O)c2csc(N)n2)C(=O)N1S(=O)(=O)O; assay: as §1
[33] = substrate: CO/N=C(\C(=O)N[C@@H]1C(=O)N2C(C(=O)O)=C(COC(C)=O)CS[C@H]12)c1csc(N)n1; assay: (§2) Ratio of Kcat to Km for Escherichia coli wild type beta-lactamase Toho-1 assessed as compound hydrolysis by spectrophotometry
[34] = substrate: CC(=O)OCC1=C(C(=O)O)N2C(=O)[C@@H](NC(=O)Cc3cccs3)[C@H]2SC1; assay: as §2
[35] = substrate: CO/N=C(\C(=O)N[C@@H]1C(=O)N2C(C(=O)O)=C(CSc3cnns3)CS[C@H]12)c1csc(N)n1; assay: as §2
[36] = substrate: O=C(Cc1cccs1)N[C@@H]1C(=O)N2C(C(=O)[O-])=C(C[n+]3ccccc3)CS[C@H]12; assay: as §2
[37] = substrate: C[C@H]1[C@H](NC(=O)/C(=N\OC(C)(C)C(=O)O)c2csc(N)n2)C(=O)N1S(=O)(=O)O; assay: as §2

Molecule | MIC (Escherichia coli [1]) [µg/mL] | MIC (Escherichia coli [2]) [µg/mL] | MIC (Escherichia coli [3]) [µg/mL] | MIC (Escherichia coli [4]) [µg/mL] | MIC (Escherichia coli [5]) [µg/mL] | MIC (Escherichia coli [6]) [µg/mL] | MIC (Escherichia coli [7]) [µg/mL] | MIC (Escherichia coli [8]) [µg/mL] | MIC (Escherichia coli [9]) [µg/mL] | MIC (Escherichia coli [10]) [µg/mL] | Km (Escherichia coli [11]) [µM] | kcat (Escherichia coli [11]) [s⁻¹] | Km (Escherichia coli [13]) [µM] | kcat (Escherichia coli [13]) [s⁻¹] | kcat/Km (Escherichia coli [14]) | kcat/Km (Escherichia coli [15]) | kcat/Km (Escherichia coli [16]) | kcat/Km (Escherichia coli [17]) | Km (Escherichia coli [18]) [µM] | kcat (Escherichia coli [18]) [s⁻¹] | other results
CO[C@@]1(NC(=O)Cc2cccs2)C(=O)N2C(C(=O)O)=C(COC(N)=O)CS[C@@H]21 [CEFOXITIN] | 1 (≈ 2.34 µM) | 2 (≈ 4.68 µM) | 2 (≈ 4.68 µM) | 2 (≈ 4.68 µM) | 2 (≈ 4.68 µM) | 1 (≈ 2.34 µM) | 1 (≈ 2.34 µM) | 1 (≈ 2.34 µM) | 2 (≈ 4.68 µM) | 1 (≈ 2.34 µM) |  |  |  |  |  |  |  |  |  |  | 
CC1(C)S[C@@H]2[C@H](NC(=O)[C@H](N)c3ccccc3)C(=O)N2[C@H]1C(=O)O [AMPICILLIN] | 512 (≈ 1470 µM) | 1020 (≈ 2930 µM) | 1020 (≈ 2930 µM) | 512 (≈ 1470 µM) | 128 (≈ 366 µM) | 1 (≈ 2.86 µM) | 256 (≈ 733 µM) | 256 (≈ 733 µM) | 4100 (≈ 11700 µM) | 512 (≈ 1470 µM) | 21 | 27 | 120 | 310 | 7.2 ×10⁵ /s/M | 1.9 ×10⁶ /s/M | 1.2 ×10⁶ /s/M | 1.3 ×10⁶ /s/M | 38 | 27 | Km (Escherichia coli [12]): 25 µM; kcat (Escherichia coli [12]): 28 s⁻¹; Km (Escherichia coli [19]): 26 µM; kcat (Escherichia coli [19]): 39 s⁻¹; Km (Escherichia coli [20]): 35 µM; kcat (Escherichia coli [20]): 37 s⁻¹; kcat/Km (Escherichia coli [21]): 2.5 ×10⁶ /s/M; Km (Escherichia coli [22]): 25 µM; kcat (Escherichia coli [22]): 33 s⁻¹; kcat/Km (Escherichia coli [23]): 1.1 ×10⁶ /s/M; kcat/Km (Escherichia coli [24]): 1.5 ×10⁶ /s/M; Km (Escherichia coli [25]): 20 µM; kcat (Escherichia coli [25]): 38 s⁻¹; kcat/Km (Escherichia coli [26]): 1.1 ×10⁶ /s/M
C[C@H]1[C@H](NC(=O)/C(=N\OC(C)(C)C(=O)O)c2csc(N)n2)C(=O)N1S(=O)(=O)O [AZTREONAM] | 128 (≈ 294 µM) | 64 (≈ 147 µM) | 1 (≈ 2.3 µM) | 16 (≈ 36.7 µM) | 2 (≈ 4.59 µM) | < 0.125 | 64 (≈ 147 µM) | 8 (≈ 18.4 µM) | 128 (≈ 294 µM) | 64 (≈ 147 µM) | 100 | 15 | 31 | 9.1 | 3.5 ×10⁴ /s/M | 7.7 ×10⁴ /s/M | 1.5 ×10⁵ /s/M | 1.3 ×10⁵ /s/M | 240 | 8.6 | Km (Escherichia coli [19]): 69 µM; kcat (Escherichia coli [19]): 6.6 s⁻¹; Km (Escherichia coli [20]): 64 µM; kcat (Escherichia coli [20]): 6.7 s⁻¹; kcat/Km (Escherichia coli [21]): 2.9 ×10⁵ /s/M; Km (Escherichia coli [22]): 93 µM; kcat (Escherichia coli [22]): 12 s⁻¹; kcat/Km (Escherichia coli [23]): 1.1 ×10⁵ /s/M; kcat/Km (Escherichia coli [24]): 9.6 ×10⁴ /s/M; Km (Escherichia coli [25]): 58 µM; kcat (Escherichia coli [25]): 4.5 s⁻¹; kcat/Km (Escherichia coli [26]): 1.9 ×10⁴ /s/M
CC(C)(O/N=C(\C(=O)N[C@@H]1C(=O)N2C(C(=O)[O-])=C(C[n+]3ccccc3)CS[C@H]12)c1csc(N)n1)C(=O)O [CEFTAZIDIME] | 8 (≈ 14.6 µM) | 4 (≈ 7.32 µM) | < 0.125 | 1 (≈ 1.83 µM) | 0.25 (≈ 0.457 µM) | < 0.125 | 0.25 (≈ 0.457 µM) | < 0.125 | 0.5 (≈ 0.915 µM) | 4 (≈ 7.32 µM) |  |  |  |  |  |  |  |  |  |  | 
B1 |  |  |  |  |  |  |  |  |  |  |  |  |  |  |  |  |  |  |  |  | Km [27]: 210 µM; kcat [27]: 390 s⁻¹; Km [28]: 190 µM; kcat [28]: 790 s⁻¹; Km [29]: 24 µM; kcat [29]: 42 s⁻¹; Km [30]: 150 µM; kcat [30]: 530 s⁻¹; Km [31]: 280 µM; kcat [31]: 420 s⁻¹; Km [32]: 45 µM; kcat [32]: 8.3 s⁻¹; kcat/Km [33]: 1.9 ×10⁶ /s/M; kcat/Km [34]: 4.3 ×10⁶ /s/M; kcat/Km [35]: 3.5 ×10⁶ /s/M; kcat/Km [36]: 1.5 ×10⁶ /s/M; kcat/Km [37]: 1.9 ×10⁵ /s/M
